Test results taken from patent EP4781986A1, “PHARMACEUTICAL COMPOSITION HAVING IMPROVED PHARMACOKINETIC PROPERTIES” (Sichuan Purity Pharmaceutical Co., Ltd., priority 2023, dated 2025).

How the values were obtained:
[1] = stability test in liver microsomes (rat); type: in vitro ADME; conditions: Rat liver microsomes
Experimental: The stability of the compound of the present invention in liver microsomes of rat, monkey and human was determined. Tested compounds of the present invention were the compounds in Examples 6 and 8 , and a control drug was Zavegepant.
3.2 An appropriate amount of liver microsome solution was transferred into a 1 mL 96-deep-well plate, added with a tested drug liquid (or a probe substrate solution), and pre-incubated in a thermal mixer at 37°C for 5 minutes. Two parts of mixed solutions were taken out from the system and added with 1×PBS to replace NADPH, and the mixed solutions were taken out at 0 and 60 minutes respectively, and added with methanol (containing an internal standard) to terminate the reaction. In the remaining mixed system, each well was added with NADPH to start the reaction. In the tested substance group, mixed solutions were taken out from the system at 0, 5, 15, 30, 45 and 60 minutes, and in the control group, mixed solutions were taken out from the system at 0, 30 and 60 minutes, and the mixed solutions were added methanol (containing an internal standard) to terminate the reaction. All samples of the terminated reaction were mixed evenly and centrifuged in a centrifuge at 3800 rpm for 15 minutes, and the supernatant was taken for LC-MS/MS analysis.
A peak area was determined by an extracted ion chromatogram. A slope value k was determined by linear regression of a remaining percentage of a parent drug relative to a natural logarithm of an incubation time curve. According to the slope, in-vitro half-life periods (t1/2) were respectively calculated, and in-vitro intrinsic clearance rates (CLint, represented by µL/min/mg protein) were calculated. Calculation formulas were as follows: t1/2 = ln2/k = 0.693/k; and CLint = 0.693/t1/2 /liver microsome protein concentration [formula]

[2] = PK properties in SD rats with or without 0.2% alkyl glycoside (DDM); type: in vivo; conditions: for Tmax shortened by: 0.2% DDM vs without DDM; for Tmax(DDM 0.2%)/ Tmax(DDM 0%): 0.2% dodecyl-β-D-maltoside (DDM) vs without DDM; for Tmax: rat, in vivo
From the text: During preparation of a test sample in the Test Example 5, a drug solution group with 0.2% dodecyl-β-D-maltoside (DDM) was also established and prepared in parallel, so as to compare and observe changes of PK properties in rats administered with the drug solution group with 0.2% dodecyl-β-D-maltoside (DDM) and the drug solution group without dodecyl-β-D-maltoside (DDM).

[3] = test system: Plasma of cynomolgus monkey; assay: plasma protein binding rate test, equilibrium dialysis (monkey); type: in vitro ADME; conditions: 1 µM, 37°C, 6 hours
Experimental: Protein binding rates of the compound of the present invention in plasma of rat, monkey and human were determined by an equilibrium dialysis method. Tested compounds of the present invention were the compounds in Examples 6 and 8.
3.1 A dry dialysis membrane was rinsed with ultrapure water for 2-3 times, and then soaked in a phosphate buffer for 1 hour for later use. Polytetrafluoroethylene module was soaked in 20% ethanol for 30 minutes, and then surface moisture was dried with dust-free paper for later use. The pretreated dialysis membrane was assembled into a dialysis plate according to the product specification, and one side (receptor compartment) of an osmotic membrane in each dialysis well was added with 100 µL of receptor fluid (100 mM phosphate buffer solution plus 0.002% Tween 80).
3.2 The plasma was put into a centrifuge tube, a working solution of a tested substance was added into the plasma, wherein a final concentration was 1 µM, and the mixture was turned upside down and mixed evenly (this step was carried out in ice bath). 20 µL of drug-containing plasma each was taken, and was respectively transferred to a 96-well sample plate according to two parts in parallel, and stored in a refrigerator at -20°C as a T0 sample.
3.3 Another 100 µL of the above drug-containing plasma was transferred to the other side (sample compartment) of the membrane in the dialysis device according to two parts in parallel, and incubated under vibration at a constant temperature of 37°C for 6 hours. […]
A plasma protein binding rate and a recovery rate of the compound in plasma were calculated by the following formulas: dissociation percentage (%) = CB /CA; [formula] plasma protein binding rate (fb%) = 1−dissociation percentage (%); [formula] recovery rate (%) = (CB+CA)/CT0 [formula] wherein CB was a concentration of the compound in the receptor fluid after equilibrium dialysis; CA was a concentration of the compound in the drug-containing plasma after equilibrium dialysis; and CT0 was an initial concentration of the compound in plasma.

[4] = PK properties in SD rats with different concentrations of alkyl glycoside (0.05% and 5% DDM); type: in vivo; conditions: for Tmax(DDM 0.05%)/ Tmax(DDM 0%): 0.05% DDM vs without DDM; for Tmax(DDM 5%)/ Tmax(DDM 0%): 5% DDM vs without DDM; for Tmax: rat, in vivo
From the text: During preparation of a test sample in the Test Example 7, drug solution groups with 0.05% and 5% dodecyl-β-D-maltosides (DDM) were established and prepared in parallel, so as to compare and observe changes of PK properties in rats administered with the drug solution groups with two different concentrations of dodecyl-β-D-maltosides (DDM).

[5] = intranasal, 0.05% alkyl glycoside vs without
[6] = intranasal, 5% alkyl glycoside vs without

Tmax ([2]; Sprague-Dawley, inhaled or intranasal, 0.2% DDM)	Tmax ([2]; Sprague-Dawley, inhaled or intranasal, not added with DDM (0%DDM))	Tmax ([4]; Sprague-Dawley, inhaled or intranasal, 0.05% alkyl glycoside)	Tmax ([4]; Sprague-Dawley, inhaled or intranasal, 5% alkyl glycoside)	Tmax ([4]; Sprague-Dawley, inhaled or intranasal, without alkyl glycoside)	Compound	CLint [1]	% remaining (60 min) [1]	Tmax shortened by ([2]; intranasal)	Tmax(DDM 0.2%)/ Tmax(DDM 0%) ([2]; intranasal)	Tmax ([2]; intranasal, 0.2% DDM)	Tmax ([2]; intranasal, not added with DDM (0%DDM))	fb (%) [3]	Tmax(DDM 0.05%)/ Tmax(DDM 0%) ([4]; intranasal)	Tmax shortened by [4, 5]	Tmax(DDM 5%)/ Tmax(DDM 0%) ([4]; intranasal)	Tmax shortened by [4, 6]	Tmax ([4]; intranasal, 0.05% alkyl glycoside)	Tmax ([4]; intranasal, 5% alkyl glycoside)	Tmax ([4]; intranasal, without alkyl glycoside)
					Cc1cc(C[C@@H](NC(=O)N2CCC(c3cc4c([nH]c3=O)SCCC4)CC2)C(=O)N2CCN(C3CCN(C)CC3)CC2)cc2cn[nH]c12 [Example 6, (R)-N-(3-(7-methyl-1H-indazole-5-yl)-1-(4-(1-methylpiperidine-4-yl)piperazine-1-yl)-1-oxopropan-2-yl)-4-(7-oxo-3,4,7,8-tetrahydro-2H-thiopyrano[2,3-b]pyridine-6-yl)piperidine-1-formamide]	2.4 µL/min/mg	91.5%	83.3%	16.7%	10 min	60 min	61.3%	25.0%	75%	8.3%	91.7%	15 min	4.98 min	60 min
10 min	12.5 min	10 min	4.98 min	12 min	Cc1cc(C[C@@H](NC(=O)N2CCC(c3cc4c([nH]c3=O)SCC4)CC2)C(=O)N2CCN(C3CCN(C)CC3)CC2)cc2cn[nH]c12 [Example 8, (R)-N-(3-(7-methyl-1H-indazole-5-yl)-1-(4-(1-methylpiperidine-4-yl)piperazine-1-yl)-1-oxopropan-2-yl)-4-(6-oxo-2,3,6,7-tetrahydrothieno[2,3-b]pyridine-5-yl)piperidine-1-formamide]		90.7%	20.1%	79.9%			47.7%	79.9%	20%	39.7%	60%			
